The results in this text go back to patent publication US8431593B2, “Heteroaryl amide derivatives” (H. Lundbeck A/S, priority 2006, dated 2013).

In the assay the target is T1, P2X7 receptor (Homo sapiens, UniProt Q99572).
T1 construct: host or cells: SH-SY5Y
T1 sequence (Q99572 1-595): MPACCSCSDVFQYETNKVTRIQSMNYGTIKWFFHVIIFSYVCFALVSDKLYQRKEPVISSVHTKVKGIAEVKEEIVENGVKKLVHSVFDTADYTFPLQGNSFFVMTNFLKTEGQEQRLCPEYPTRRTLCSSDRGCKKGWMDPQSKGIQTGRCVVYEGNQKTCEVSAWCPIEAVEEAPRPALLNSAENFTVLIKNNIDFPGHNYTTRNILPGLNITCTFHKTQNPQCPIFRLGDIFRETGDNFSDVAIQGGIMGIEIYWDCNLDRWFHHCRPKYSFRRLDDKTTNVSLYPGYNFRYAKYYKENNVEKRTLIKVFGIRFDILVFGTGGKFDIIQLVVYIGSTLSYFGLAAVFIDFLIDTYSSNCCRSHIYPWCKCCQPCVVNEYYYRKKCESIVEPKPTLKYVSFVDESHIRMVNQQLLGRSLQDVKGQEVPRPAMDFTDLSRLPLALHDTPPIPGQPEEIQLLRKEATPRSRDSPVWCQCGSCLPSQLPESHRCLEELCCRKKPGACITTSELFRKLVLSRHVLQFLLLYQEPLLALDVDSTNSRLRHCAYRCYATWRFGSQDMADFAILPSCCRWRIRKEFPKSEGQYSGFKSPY
Description: P2X7 calcium mobilization assay, high throughput, antagonist activity (Example 4A). Format: cell-based. The method, boiled down:
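FLIPR^TETRA calcium read-out: maximum RFU per well minus average no-agonist control, with agonist wells giving the average positive maximum. Cells seeded at 100,000/well one day ahead, dye-loaded 1 h, rinsed, then exposed to compound for 1 h at room temperature.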

Where [1] appears, read: SH-SY5Y cells, 50% decrease in fluorescence response to 80 μM BzATP, read-out: IC50.

Read-outs that look alike come from different tables or passages of the source.

Take `CC(=O)NCCNCc1cn2c(C(=O)NCC34CC5CC(CC(C5)C3)C4)cccc2n1` [Compound 67, 2-{[(2-acetamido-ethyl)amino]methyl}-N-(adamantan-1-ylmethyl)imidazo[1,2-a]pyridine-5-carboxamide]: the IC50 under setting [1] was < 2000 nM.
With `O=C(NCC12CC3CC(CC(C3)C1)C2)c1cccc2nc(CNCc3ccccn3)cn12` [Compound 68, N-(adamantan-1-ylmethyl)-2-{[(pyridin-2-ylmethyl)amino]meth-yl}imidazo[1,2-a]pyridine-5-carboxamide], under setting [1], the IC50 is < 2000 nM.
Take `N[C@@H]1CCN(Cc2cn3c(C(=O)NCC45CC6CC(CC(C6)C4)C5)cccc3n2)C1` [Compound 69, N-(adamantan-1-ylmethyl)-2-{[(3R)-3-aminopyrrolidin-1-yl]methyl}imidazo[1,2-a]pyridine-5-carboxamide]: the IC50 under setting [1] is < 2000 nM.
The same measure, in the same setting: with `CC(=O)N[C@@H]1CCN(Cc2cn3c(C(=O)NCC45CC6CC(CC(C6)C4)C5)cccc3n2)C1` [Compound 70, 2-[(3-acetamidopyrrolidin-1-yl)methyl]-N-(adamantan-1-ylmethyl)imidazo[1,2-a]pyridine-5-carboxamide] the figure was < 2000 nM; with `CCNC(=O)c1cn2c(C(=O)NCC34CC5CC(CC(C5)C3)C4)cccc2n1` [Compound 72, 5-N-(adamantan-1-ylmethyl)-- ethylimidazo[1,2-a]pyridine-2,5-dicarboxamide], < 2000 nM.
In the case of `CC(C)CNC(=O)c1cn2c(C(=O)NCC34CC5CC(CC(C5)C3)C4)cccc2n1` [Compound 73, 5-N-(adamantan-1-ylmethyl)-- isobutylimidazo[1,2-a]pyridine-2,5-dicarboxamide], the IC50 under setting [1] is < 2000 nM.
In the case of `CN(C)C(=O)CNC(=O)c1cn2c(C(=O)NCC34CC5CC(CC(C5)C3)C4)cccc2n1` [Compound 74, 5-N-(adamantan-1-ylmethyl)--[2-(dimethylamino)-2-oxoethyl]imidazo[1,2-a]pyridine-2,5-dicarboxamide], under setting [1], the IC50 is < 2000 nM.
On to `COCCN(C)C(=O)CNC(=O)c1cn2c(C(=O)NCC34CC5CC(CC(C5)C3)C4)cccc2n1` [Compound 75, 5-N-(adamantan-1-ylmethyl)--{2-[(2-methoxy-ethyl)(methyl)amino]-2-oxoethyl}imidazo[1,2-a]pyridine-2,5-dicarboxamide], for which, under setting [1], the IC50 was < 2000 nM.
`O=C(NCC(=O)N1CCOCC1)c1cn2c(C(=O)NCC34CC5CC(CC(C5)C3)C4)cccc2n1` [Compound 76, 5-N-(adamantan-1-ylmethyl)--(2-morpholin-4-yl-2-oxoethyl)imidazo[1,2-a]pyridine-2,5-dicarboxamide]: under setting [1], the IC50 is < 2000 nM.
For the compound `NC(=O)CCNC(=O)c1cn2c(C(=O)NCC34CC5CC(CC(C5)C3)C4)cccc2n1` [Compound 77, 5-N-(adamantan-1-ylmethyl)--(3-amino-3-oxopropyl)imidazo[1,2-a]pyridine-2,5-dicarboxamide], the IC50 under setting [1] was < 2000 nM.
`NC(=O)CNC(=O)c1cn2c(C(=O)NCC34CC5CC(CC(C5)C3)C4)cccc2n1` [Compound 78, 5-N-(adamantan-1-ylmethyl)--(2-amino-2-oxoethyl)imidazo[1,2-a]pyridine-2,5-dicarboxamide]: the IC50 under setting [1] is < 2000 nM.
With `CC(NC(=O)c1cn2c(C(=O)NCC34CC5CC(CC(C5)C3)C4)cccc2n1)C(N)=O` (stereo not drawn) [Compound 79, 5-N-(adamantan-1-ylmethyl)--(2-amino-1-methyl-2-oxoethyl)imidazo[1,2-a]pyridine-2,5-dicarboxamide], the IC50 under setting [1] is < 2000 nM.
As to `O=C(NCCCO)c1cn2c(C(=O)NCC34CC5CC(CC(C5)C3)C4)cccc2n1` [Compound 80, 5-N-(adamantan-1-ylmethyl)--(3-hydroxy-propyl)imidazo[1,2-a]pyridine-2,5-dicarboxamide], under setting [1], the concentration for half-maximal inhibition (IC50) was < 2000 nM.
As to `C[C@@H](O)CNC(=O)c1cn2c(C(=O)NCC34CC5CC(CC(C5)C3)C4)cccc2n1` [Compound 81, 5-N-(adamantan-1-ylmethyl)--[(2R)-2-hydroxy-propyl]imidazo[1,2-a]pyridine-2,5-dicarboxamide], the IC50 under setting [1] was < 2000 nM.
The same measure, in the same setting: with `C[C@H](O)CNC(=O)c1cn2c(C(=O)NCC34CC5CC(CC(C5)C3)C4)cccc2n1` [Compound 82, 5-N-(adamantan-1-ylmethyl)--[(2S)-2-hydroxy-propyl]imidazo[1,2-a]pyridine-2,5-dicarboxamide] the figure was < 2000 nM; with `CCC(O)CNC(=O)c1cn2c(C(=O)NCC34CC5CC(CC(C5)C3)C4)cccc2n1` (stereo not drawn) [Compound 83, 5-N-(adamantan-1-ylmethyl)--(2-hydroxy-butyl)imidazo[1,2-a]pyridine-2,5-dicarboxamide], < 2000 nM.
For the compound `CC(O)CCNC(=O)c1cn2c(C(=O)NCC34CC5CC(CC(C5)C3)C4)cccc2n1` (stereo not drawn) [Compound 84, 5-N-(adamantan-1-ylmethyl)--(3-hydroxy-butyl)imidazo[1,2-a]pyridine-2,5-dicarboxamide], the IC50 under setting [1] is < 2000 nM.
Consider `CC(C)[C@H](CO)NC(=O)c1cn2c(C(=O)NCC34CC5CC(CC(C5)C3)C4)cccc2n1` [Compound 85, 5-N-(adamantan-1-ylmethyl)--[(1R)-1-(hydroxymethyl)-2-methyl-propyl]imidazo[1,2-a]pyridine-2,5-dicarboxamide], for which, under setting [1], the IC50 was < 2000 nM.
On the same count and under the same terms, the result for `CC(O)CNC(=O)c1cn2c(C(=O)NCC34CC5CC(CC(C5)C3)C4)cccc2n1` (stereo not drawn) [Compound 86, 5-N-(adamantan-1-ylmethyl)--(2-hydroxy-propyl)imidazo[1,2-a]pyridine-2,5-dicarboxamide] reads < 2000 nM.
On to `COCC1CCN(C(=O)c2cn3c(C(=O)NCC45CC6CC(CC(C6)C4)C5)cccc3n2)CC1` [Compound 87, N-(adamantan-1-ylmethyl)-2-{[4-(methoxy-methyl)piperidin-1-yl]carbonyl}imi-dazo[1,2-a]pyridine-5-carboxamide], for which the IC50 is < 2000 nM.
Turning to `COCCC1CCN(C(=O)c2cn3c(C(=O)NCC45CC6CC(CC(C6)C4)C5)cccc3n2)CC1` [Compound 88, N-(adamantan-1-ylmethyl)-2-{[4-(2-methoxyethyl)piperidin-1-yl]carbonyl}imidazo[1,2-a]pyridine-5-carboxamide], the IC50 is < 2000 nM.
For `CN1CCN(C(=O)c2cn3c(C(=O)NCC45CC6CC(CC(C6)C4)C5)cccc3n2)CC1` [Compound 89, N-(adamantan-1-ylmethyl)-2-[(4-methylpiperazin-1-yl)carbonyl]imidazo[1,2-a]pyridine-5-carboxamide], the IC50 under setting [1] is < 2000 nM.
In the case of `CN(C(=O)c1cn2c(C(=O)NCC34CC5CC(CC(C5)C3)C4)cccc2n1)C1CCOC1` (stereo not drawn) [Compound 90, 5-N-(adamantan-1-ylmethyl)--methyl-- (tetrahydrofuran-3-yl)imidazo[1,2-a]pyridine-2,5-dicarboxamide], under setting [1], the IC50 is < 2000 nM.
The same measure, in the same setting: the result for `CN(C)CCN(C)C(=O)c1cn2c(C(=O)NCC34CC5CC(CC(C5)C3)C4)cccc2n1` [Compound 91, 5-N-(adamantan-1-ylmethyl)--[2-(dimethylamino)ethyl]-- methylimidazo[1,2-a]pyridine-2,5-dicarboxamide] reads < 2000 nM; that for `CN1CCC(N(C)C(=O)c2cn3c(C(=O)NCC45CC6CC(CC(C6)C4)C5)cccc3n2)C1` (stereo not drawn) [Compound 92, 5-N-(adamantan-1-ylmethyl)--methyl--(1-methylpyrrolidin-3-yl)imidazo[1,2-a]pyridine-2,5-dicarboxamide], < 2000 nM.
Turning to `CN(C)C1CCN(C(=O)c2cn3c(C(=O)NCC45CC6CC(CC(C6)C4)C5)cccc3n2)C1` (stereo not drawn) [Compound 93, N-(adamantan-1-ylmethyl)-2-{[3-(dimethyl-amino)pyrrolidin-1-yl]carbonyl}imidazo[1,2-a]pyridine-5-carboxamide], the IC50 under setting [1] was < 2000 nM.
As for `COCCN1CCN(C(=O)c2cn3c(C(=O)NCC45CC6CC(CC(C6)C4)C5)cccc3n2)CC1` [Compound 94, N-(adamantan-1-ylmethyl)-2-{[4-(2-methoxyethyl)piperazin-1-yl]carbonyl}imidazo[1,2-a]pyridine-5-carboxamide], under setting [1], the IC50 was < 2000 nM.
Consider `COC1CCN(C(=O)c2cn3c(C(=O)NCC45CC6CC(CC(C6)C4)C5)cccc3n2)CC1` [Compound 95, N-(adamantan-1-ylmethyl)-2-[(4-methoxypiperidin-1-yl)carbonyl]imidazo[1,2-a]pyridine-5-carboxamide], for which, under setting [1], the IC50 is < 2000 nM.
As for `CS(=O)(=O)C1CCN(C(=O)c2cn3c(C(=O)NCC45CC6CC(CC(C6)C4)C5)cccc3n2)CC1` [Compound 96, N-(adamantan-1-ylmethyl)-2-{[4-(methyl-sulfonyl)piperidin-1-yl]carbonyl}imidazo[1,2-a]pyridine-5-carboxamide], the IC50 under setting [1] is < 2000 nM.
With `CS(=O)(=O)N1CCN(C(=O)c2cn3c(C(=O)NCC45CC6CC(CC(C6)C4)C5)cccc3n2)CC1` [Compound 97, N-(adamantan-1-ylmethyl)-2-{[4-(methyl-sulfonyl)piperazin-1-yl]carbonyl}imidazo[1,2-a]pyridine-5-carboxamide], the IC50 under setting [1] is < 2000 nM.
